Tests used:
[1] = target: T1, MTP (Mus musculus, UniProt O08601); experiment: Determination of MTP activity in tissues (liver homogenates of treated mice); type: in vivo; settings: for MTP activity (liver): C57Bl/6J, MTPi 1 mg/kg/day oral one week, lovastatin 50 or pioglitazone 25 mg/kg/day added to MTPi; for MTP specific activity (liver): WD fed C57Bl/6J, drug alone, one week
T1 construct: small pieces (0.1 g) of liver and ˜1-cm segments of proximal small intestine were homogenized; from tissue; host or cells: mouse liver (C57BL/6J; Reversa mice in some experiments); supernatant of ultracentrifuged homogenate
T1 sequence (O08601 22-894): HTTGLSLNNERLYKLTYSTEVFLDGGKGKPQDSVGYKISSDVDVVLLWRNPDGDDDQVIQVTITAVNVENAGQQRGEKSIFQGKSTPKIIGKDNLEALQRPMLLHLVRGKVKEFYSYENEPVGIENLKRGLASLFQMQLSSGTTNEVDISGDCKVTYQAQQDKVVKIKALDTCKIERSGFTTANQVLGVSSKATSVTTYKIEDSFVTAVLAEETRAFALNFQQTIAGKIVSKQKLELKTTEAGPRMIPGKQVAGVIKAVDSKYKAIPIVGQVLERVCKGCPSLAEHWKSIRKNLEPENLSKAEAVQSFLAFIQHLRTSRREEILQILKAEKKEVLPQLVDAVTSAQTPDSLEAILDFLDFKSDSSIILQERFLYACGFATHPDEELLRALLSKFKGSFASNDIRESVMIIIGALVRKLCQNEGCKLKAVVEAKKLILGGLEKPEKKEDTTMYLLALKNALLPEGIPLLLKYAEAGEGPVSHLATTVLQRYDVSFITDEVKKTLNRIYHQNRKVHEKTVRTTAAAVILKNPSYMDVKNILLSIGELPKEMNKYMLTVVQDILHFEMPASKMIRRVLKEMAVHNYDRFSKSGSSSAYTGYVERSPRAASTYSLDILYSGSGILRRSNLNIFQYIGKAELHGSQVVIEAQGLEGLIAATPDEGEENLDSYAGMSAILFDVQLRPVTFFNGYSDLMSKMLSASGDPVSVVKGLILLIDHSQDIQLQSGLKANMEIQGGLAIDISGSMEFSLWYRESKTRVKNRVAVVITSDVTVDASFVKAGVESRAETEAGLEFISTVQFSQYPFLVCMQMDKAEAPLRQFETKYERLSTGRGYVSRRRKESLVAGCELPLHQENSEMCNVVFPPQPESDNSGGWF
T1 sequence (P09103 21-509 partner limits assumed): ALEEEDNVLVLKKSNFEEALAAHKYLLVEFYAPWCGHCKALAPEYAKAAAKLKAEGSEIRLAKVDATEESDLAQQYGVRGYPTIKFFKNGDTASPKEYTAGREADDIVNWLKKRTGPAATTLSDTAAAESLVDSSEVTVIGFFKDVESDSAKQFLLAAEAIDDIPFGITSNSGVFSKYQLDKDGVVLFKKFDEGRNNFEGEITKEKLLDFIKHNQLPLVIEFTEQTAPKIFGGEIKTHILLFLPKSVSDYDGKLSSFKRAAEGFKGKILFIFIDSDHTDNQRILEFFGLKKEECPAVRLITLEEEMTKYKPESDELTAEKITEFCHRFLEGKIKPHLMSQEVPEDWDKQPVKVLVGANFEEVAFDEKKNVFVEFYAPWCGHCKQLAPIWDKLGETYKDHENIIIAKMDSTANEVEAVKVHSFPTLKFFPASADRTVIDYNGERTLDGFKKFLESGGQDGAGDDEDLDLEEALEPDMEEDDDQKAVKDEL
Experimental: After extensive washes with ice-cold PBS, small pieces (0.1 g) of liver and ˜1-cm segments of proximal small intestine were homogenized with 1 ml of ice-cold 1 mM Tris-HCl, pH 7.6, 1 mM EGTA, and 1 mM MgCl2 buffer in a glass homogenizer. The homogenates were centrifuged (SW55 Ti rotor, 50,000 rpm, 10° C., 1 h), and supernatants were used for MTP assay as described before (41; 42) using a kit (Chylos, Inc.).

[2] = tested on: hepatic mRNA of ER stress, inflammation and lipid metabolism genes; experiment: Hepatic mRNA quantification (qPCR, XBP-1 splicing) in treated mice; type: in vivo; settings: liver; for Bip, Ire1α, CHOP, PERK and ATF6 mRNA levels: BMS MTPi one week, lovastatin or pioglitazone with MTPi
Text: FIGS. 6a and 6b. Liver samples from FIG. 16 were used to isolate total mRNA and to quantify expression of different candidate genes. Statistical analyses were as described in FIGS. 16-17.
FIGS. 9a and 9b. C57B/6J mice were fed a western diet for 8 weeks and then treated with MTP inhibitor and other indicated compounds for 8 days as described in FIG. 16. Liver samples were used to isolate mRNA and to quantify mRNA levels with different candidate genes. Stars on MTPi group represent comparison with the control group.
FIG. 16. Age matched wildtype C57/BL6J animals chow fed animals were treated with DMSO (control) or MTP inhibitor (MTPi) for one week. Age matched wildtype C57/BL6J were fed WD for one month and were administered MTPi, Lovastatin, (Lova), Pioglitazone (Pio) or 4-phenylbutyric acid (PBA) every day for one week. All drugs were administered by oral gavage. Animals were sacrificed on day 7 and livers were harvested. mRNA was extracted and subjected to qPCR analysis. * represent comparison DMSO control; # represent comparisons to WD control; @ represent comparisons to WD MTP inhibitor treated animals.
mRNA quantifications and primers used: Total RNA from tissues and cells were isolated using TriZol™ (Invitrogen). The purity and integrity of RNA were assessed by the A260/A280 ratio and 1% agarose gel electrophoresis, respectively. Only the RNAs with ratios more than 1.7 were used for cDNA synthesis. The first strand cDNA was synthesized using Omniscript RT (Qiagen) kit. Briefly, 2 μg of total RNA, 1 μM random primers (Invitrogen), 0.5 mM dNTP solution, and 0.5 U/μl Omniscript Reverse Transcriptase were incubated at 37° C. for 1 h in 20 μl of RT buffer and the reaction was terminated by incubating at 95° C. for 5 minutes. Each reaction of quantitative RT-PCR was carried out in a volume of 20 μl consisting of 5 μl cDNA sample (1:100 dilution of the first strand cDNA sample) and 15 μl of PCR master mix solution containing 1×PCR reaction buffer, 6 mM MgCl2, 200 nM primer pair, 0.025 U/μl HotStar Gold™ DNA polymerase, 200 μM dNTP solution, and 0.3 μl SYBR Green I solution (gPCR™ Core Kit for SYBR Green I, Eurogentec). The PCR was carried out by incubating the reaction mixture first for 10 minute at 95° C. followed by 40 cycles of 15 sec incubations at 95° C. and 1 min at 60° C. in the ABI 7000 SDS PCR machine. The data were analyzed using ΔΔCT method according to manufacturer's instruction and presented as arbitrary units. The primers used in this study were designed with the PrimerExpress 3.0 software (Applied Biosystems, CA) and are presented as Table 1.

[3] = WD 8 weeks, CP-346086 1 week ± lovastatin or WY14643
[4] = WD five weeks, treatment in last week, MTPi ± pioglitazone or lovastatin

SMILES	MTP activity (liver) [1]	hepatic MTP activity [1, 3]	MTP specific activity (liver) [1]	hepatic MTP activity [1, 4]	Bip, Ire1α, CHOP, PERK and ATF6 mRNA levels [2]	Ire1α mRNA and spliced form of XBP-1 ([2]; WD 8 weeks, CP-346086 ± lovastatin or WY14643, 8 days)
CC[C@H](C)C(=O)O[C@H]1C[C@@H](C)C=C2C=C[C@H](C)[C@H](CC[C@@H]3C[C@@H](O)CC(=O)O3)[C@H]21 [lovastatin]	not further affected	no further effect	no effect	unaffected	significantly lower	
Cc1cccc(Nc2cc(Cl)nc(SCC(=O)O)n2)c1C [WY14643]		no further effect				no effect
CCc1ccc(CCOc2ccc(CC3SC(=O)NC3=O)cc2)nc1 (racemic) [pioglitazone, (RS)-5-(4-[2-(5-ethylpyridin-2-yl)ethoxy]benzyl)thiazolidine-2,4-dione]	not further affected		no effect	unaffected	significantly lower	
